This is an account of results in patent publication US20110059977A1 (priority 2006, published 2011).

In assay [1] the test system is Mycobacterium bovis BCG. The assay can be described thus: microbe, parasite or virus in culture. The class given is cell-based. The settings on record: for MIC: Mycobacterium tuberculosis variant bovis BCG, BCG, 144 h.
The test system of assay [2] is mc^2155 strain of M. smegmatis. The assay can be described thus: In vitro assays on Mycobacterium smegmatis (MIC, resazurin coloration microdilution method). The assay is classed as cell-based. The protocol:
All molecules to be tested are prepared in dimethylsulfoxide (DMSO) at a concentration of 50 mg/ml and frozen until use.
20 μl of each dilution for each molecule are prepared in 100 μl of the Dubos culture medium (Difco, USA), and then distributed into 96 well plates, at a concentration between 100-0.75 μg/ml.
Control wells containing DMSO alone and ethambutol (Etibi®, Myambutol®) or ofloxacine (synthesis antibiotic belonging to the fluoroquinolone family) are included at a concentration between […].
The plates are covered, sealed and incubated at 37° C. during 48 hours.
Minimal Inhibitory Concentrations (MIC) are determined using the resazurin coloration microdilution method. The powdery resazurin salt (Sigma) is prepared at a concentration of 0.01% (weight/vol) in distilled water, and the solution is then sterilized by 0.22 μm membrane filtration, and kept at 4° C. during one week.
Into the plates as incubated during 48 hours, 30 μl of a resazurin solution are added in each well. The plates are then incubated at 37° C. during 24 hours. The colour variation from blue to pink is indicative of a decrease in resazurin which corresponds to the development of the bacterial colony. The MIC is determined as being the lowest concentration to prevent a colour change. The optical density of each well is measured at 530-630 nm using a micro-plate reader, The MIC is determined by drawing the dose-optical density response curve.
(In general: Alamar Blue is a resazurin reagent that responds to reducing activity.)

A further assay has as its system M. tuberculosis H37Rv. The assay can be described thus: In vitro tests on Mycobacterium tuberculosis (MIC in 7H11 agar medium).
Assay [3] has as its system Mycobacterium bovis BCG. The class given is in vivo, C57B1/6 female mice. The settings on record: BCG-infected mice, 20 mg/kg/day intraperitoneally, 5 days.
Another assay deals with M. avium 101. The assay can be described thus: In vitro tests on Mycobacterium avium (MIC in 7H11 agar medium). The class given is cell-based. The settings on record: for MIC: Mycobacterium avium, 101, read-out: MIC on Mycobacterium avium. From the text:
All tests are repeated three times.

A further assay relates to M. smegmatis. The settings on record: cited from earlier work.
[4] abbreviates: read-out: Minimal Inhibitory Concentration MIC (μg/mL).
Setting [5] is: read-out: Minimal Inhibitory Concentration MIC (μmol/L).
Where [6] appears, read: Mycobacterium bovis BCG, 6 days at 37° C., 7H9 medium.

In brackets after ≈: the same amount, converted by molar mass. Read-outs that look alike come from different tables or passages of the source.

For `Nc1cc(=O)n2c3ccccc3c3ccnc1c32`, the results for the MIC with Mycobacterium bovis BCG [1] (setting [4]) and in the assay with Mycobacterium bovis BCG [1] (setting [5]) were 10 µg/mL and 42.5 µmol/L, respectively.
Consider `COc1ccc2c(c1)c1ccnc3ccc(=O)n2c31` [10-methoxy-canthin-6-one], for which the MIC in the assay with Mycobacterium bovis BCG [1] (setting [4]) was 7.5 µg/mL; in the assay on Mycobacterium bovis BCG [1] (setting [5]), 30 µmol/L.
Regarding `O=c1c2ccccc2c2nccc3c4ccccc4n1c32` [Benzo[e]canthin-6-one], the “Activity against Mycobacterium bovis BCG in vitro (in words)” value (shortened to “Activity against Mycobacterium bovis BCG”) with Mycobacterium bovis BCG [1] is “most active”. Further, the MIC in the assay on Mycobacterium bovis BCG [1] (setting [4]) was in the range of 2.5 to 5 µg/mL; in the assay on Mycobacterium bovis BCG [1] (setting [5]), 9.2 to 18.4 µmol/L.
As to `O=c1ccc2nccc3c4ccccc4n1c23` [Canthin-6-one], the “Activity against Mycobacterium bovis BCG” value with Mycobacterium bovis BCG [1] was “most active”; in the assay on Mycobacterium bovis BCG [1] (listed as Canthin-5-one) it was “surprising efficiency”. Further, the MIC with Mycobacterium bovis BCG [1] (setting [4]) was determined as 7.5 µg/mL; in the assay with Mycobacterium bovis BCG [1] (setting [5]), 34.1 µmol/L. The “Efficiency against Mycobacterium smegmatis (in words)” value in assay [2] is recorded as “efficient”. Also, the “Efficiency against Mycobacterium tuberculosis (in words)” value in the assay on M. tuberculosis H37Rv is “efficient”. Further, the “In vivo antituberculous efficiency (number of bacteria in spleen, liver and lungs; in words)” value with Mycobacterium bovis BCG [3] was “efficient”. In the assay on M. avium 101, the “Efficiency against Mycobacterium avium (in words)” value is recorded as “efficient”.
`O=c1ccc2c3c(cc[n+]2CCBr)c2ccccc2n13.[Br-]` [N-bromoéthyl-canthin-6-one bromide]: the “Activity against Mycobacterium bovis BCG” value in the assay with Mycobacterium bovis BCG [1] was “most active”. Also, the MIC with Mycobacterium bovis BCG [1] (setting [4]) is 1 to 5 µg/mL; in the assay with Mycobacterium bovis BCG [1] (setting [5]), 3 to 15.3 µmol/L.
On to `O=c1c2ccccc2c2c3c(cc[n+]2[O-])c2ccccc2n13` [N-oxide-benzo[e]canthin-6-one], for which the MIC is 10 µg/mL in the assay with Mycobacterium bovis BCG [1] (setting [4]) and 34.8 µmol/L in the assay with Mycobacterium bovis BCG [1] (setting [5]).
For the compound `O=c1ccc2c3c(cc[n+]2[O-])c2ccccc2n13` [N-oxide-canthin-6-one], in the assay with Mycobacterium bovis BCG [1], the “Activity against Mycobacterium bovis BCG” value is given as “most active”. The MIC in the assay with Mycobacterium bovis BCG [1] (setting [4]) is 2.5 to 5 µg/mL; in the assay on Mycobacterium bovis BCG [1] (setting [5]), 10.6 to 21.2 µmol/L.
On to `O=c1c2nccnc2c2nccc3c4ccccc4n1c32` [Pyrazine[e]canthin-6-one], for which the MIC stood at 10 µg/mL in the assay with Mycobacterium bovis BCG [1] (setting [4]) and 36.8 µmol/L in the assay with Mycobacterium bovis BCG [1] (setting [5]).
As for `NNC(=O)c1ccncc1` [isoniazide, reference compound], the “Minimal Inhibitory Concentration MIC (μg/mL)” value in the assay with Mycobacterium bovis BCG [1] (setting [6]) was 0.1 µg/mL. The MIC turned out to be 0.1 µg/mL in the assay with Mycobacterium bovis BCG [1] (setting [4]), 0.73 µmol/L with Mycobacterium bovis BCG [1] (setting [5]) and 0.1 µg/mL (≈ 0.729 µM) in the assay with M. avium 101. The “Susceptibility of M. smegmatis” value in the assay with M. smegmatis (isoniazide 10 μg/mL) was “resistant”.
Consider `CC1COc2c(N3CCN(C)CC3)c(F)cc3c(=O)c(C(=O)O)cn1c23` (stereo not shown) [ofloxacin], for which the MIC was 1 µg/mL (≈ 2.77 µM) in assay [2] (Mycolicibacterium smegmatis, mc^2155 strain, Dubos medium, resazurin, read-out: MIC (CMI) on Mycobacterium smegmatis) and 6.2 µg/mL (≈ 17.2 µM) with M. avium 101. Also, the “MIC on Mycobacterium tuberculosis” value in the assay with M. tuberculosis H37Rv (H37Rv, 7H11 agar, 21-30 days at 37° C.) worked out at 1 µg/mL (≈ 2.77 µM).
Turning to ethambutol [reference compound], in the assay on Mycobacterium bovis BCG [1] (setting [6]), the “Minimal Inhibitory Concentration MIC (μg/mL)” value was found to be 5 µg/mL and the “Minimal Inhibitory Concentration MIC (μmol/L)” value came to 24.5 µmol/L. Moreover, in assay [2] (mc^2155 strain, Dubos medium, resazurin), the “MIC (CMI) on Mycobacterium smegmatis” value came to 0.5 µg/mL. Besides, the “Susceptibility of M. smegmatis” value with M. smegmatis (ethambutol 5 μg/mL) is “reacts”.
